Results as given in PMC6910612 (Translational Vision Science & Technology, 2019).

Legend:
wild-type opsin = wild-type opsin (Homo sapiens, UniProt P08100); experiment: 9-cis-retinal binding to opsin; conditions: 3.0 μM purified wild-type opsin
[1] = system: P23H, E181K and T17M rhodopsin; conditions: cells; cited from earlier work
opsin = conditions: cited from earlier work
P23H rhodopsin = conditions: P23H knock-in mice; cited from earlier work
P23H Rho transgenic rats = conditions: cited from earlier work

Structure (SMILES): CC1=C(/C=C/C(C)=C\C=C\C(C)=C\C=O)C(C)(C)CCC1 [9-cis-retinal]
- concentration at which opsin was saturated (wild-type opsin): 5 µM

Structure (SMILES): CC(=C/C(=O)O)/C=C/C=C(\C)C1C=C2C(C)(C)CCCC2(C)O1 (stereo not drawn) [13-cis-5,8-ERA]
- folding and transport of rhodopsin mutants [1]: more effective in promoting the folding and transport of the P23H and E181K mutations than it was for the T17M mutation
- competition with 9-cis-retinal for binding to opsin (opsin): appeared to compete with 9-cis-retinal for binding to opsin

Structure (SMILES): CN(C)C(=N)N=C(N)N [metformin]
- transport of P23H rhodopsin to outer segments (P23H rhodopsin): increased transport of P23H rhodopsin to outer segments
- retinal degeneration (P23H Rho transgenic rats): increased retinal degeneration
